# Measurements as given in patent publication US20210196714A1, “COMPOSITIONS AND METHODS FOR TREATING DISORDERS CHARACTERIZED WITH ABERRANT RAS/MAPK SIGNALING” (Duke University, priority 2018, published 2021).
# “Also recorded” adds a separate entry of the source.
# Test system: kmt2d CRISPR mosaic mutants (F0)
# Experiment: Jaw defects in kmt2d-CRISPR F0 mutants
# Format: in vivo, zebrafish
# Details: kmt2d-CRISPR F0, 100 nM, 5 dpf; listed as dmDf
# Description: Prior and current genetic zebrafish models of KS focused on the newly discovered rap1a/rap1b genes. However, from the perspective of clinical utility, dmDf should be efficacious in kmt2d mutants, since loss of function mutations of the human ortholog account for as much as 75% of KS (see, Ng, S. B. et al. Nat Genet 42, 790-3 (2010); Li, Y. et al. Hum Genet 130, 715-24 (2011); Lu, J., Mo, G., Ling, Y. & Ji, L. Mol Med Rep 14, 3641-5 (2016); Miyake, N. et al. Am J Med Genet A 161a, 2234-43 (2013)). Therefore, experiments supplemented the testing tools by creating a kmt2d CRISPR/Cas9 mutant. A guide RNA targeting exon 4 of kmt2d induced efficient (˜99%) Cas9-mediated genome editing (FIG. 8). […]
# For convergence and extension (CE) phenotyping, embryos were scored as described (see, Leitch, C. C. et al. Nat Genet 40, 443-8 (2008)) at the 8-10 somite stage, and images were captured using an AZ100 microscope and NIS Elements software (Nikon). […] The distance between Meckel's (MK) and ceratohyal (CH) cartilages was measured on ventral bright field images with Image J (NIH). […] Fluorescence signal on embryo heads was imaged with the Nikon AZ100 microscope and DS-Qi1MC digital camera using […] Z-stacks to generate extended depth of focus images. Cell numbers were quantified using the ImageJ ICTN plugin (NIH). […]
structure (smiles),measurement,value
"CC(C)c1nc(-c2cccc(NS(=O)(=O)c3c(F)cccc3F)c2F)c(-c2ccnc(N)n2)s1 [Compound 8, desmethyl-Dabrafenib]",jaw defects (MK-CH distance),ameliorates the jaw defects; also recorded: ameliorated significantly
